Laboratory results: ChEMBL document CHEMBL1137051, “More potent linear peptide inhibitors of mammalian ribonucleotide reductase” (Bioorg Med Chem Lett, 2004)
Where a SMILES comes first, the peptide text is derived from it. [ ]: non-standard residue; d: D form. The star is where a group is joined. Fmoc = O=C(OCC1c2ccccc2-c2ccccc21)*; NMeF = CN[C@@H](Cc1ccccc1)C(=O)O; NMePhg = CN[C@H](C(=O)O)c1ccccc1; Cha = N[C@@H](CC1CCCCC1)C(=O)O

Tests used:
[1] = target: T1, Ribonucleoside-diphosphate reductase RR1 (Homo sapiens, UniProt P23921+Q7LG56+P31350); experiment: (§1) Inhibition of mammalian ribonucleotide reductase in a standard dTTP-dependent GDP reductase assay; type: protein-complex assay
T1 sequence (P23921 whole entry): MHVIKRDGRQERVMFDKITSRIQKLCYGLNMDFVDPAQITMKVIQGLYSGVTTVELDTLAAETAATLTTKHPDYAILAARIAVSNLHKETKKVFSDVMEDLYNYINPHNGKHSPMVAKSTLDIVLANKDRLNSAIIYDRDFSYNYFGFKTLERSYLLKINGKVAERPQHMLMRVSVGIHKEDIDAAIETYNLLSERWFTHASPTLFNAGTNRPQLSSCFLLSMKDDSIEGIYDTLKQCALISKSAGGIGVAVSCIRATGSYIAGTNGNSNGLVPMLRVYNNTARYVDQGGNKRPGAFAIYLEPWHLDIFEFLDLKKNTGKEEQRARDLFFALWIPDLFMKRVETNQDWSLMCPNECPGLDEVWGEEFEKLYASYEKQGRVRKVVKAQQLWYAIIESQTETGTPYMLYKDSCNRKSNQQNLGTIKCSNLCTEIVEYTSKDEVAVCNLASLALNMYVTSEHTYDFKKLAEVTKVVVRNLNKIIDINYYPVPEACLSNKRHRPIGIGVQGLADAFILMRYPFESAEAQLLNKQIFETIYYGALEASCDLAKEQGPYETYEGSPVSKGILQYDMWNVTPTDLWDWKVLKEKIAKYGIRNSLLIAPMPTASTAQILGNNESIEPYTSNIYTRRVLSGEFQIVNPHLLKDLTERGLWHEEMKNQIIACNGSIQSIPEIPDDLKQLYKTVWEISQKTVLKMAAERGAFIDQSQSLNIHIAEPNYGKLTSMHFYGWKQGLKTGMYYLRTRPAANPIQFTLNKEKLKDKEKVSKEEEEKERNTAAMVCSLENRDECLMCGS
T1 sequence (Q7LG56 whole entry): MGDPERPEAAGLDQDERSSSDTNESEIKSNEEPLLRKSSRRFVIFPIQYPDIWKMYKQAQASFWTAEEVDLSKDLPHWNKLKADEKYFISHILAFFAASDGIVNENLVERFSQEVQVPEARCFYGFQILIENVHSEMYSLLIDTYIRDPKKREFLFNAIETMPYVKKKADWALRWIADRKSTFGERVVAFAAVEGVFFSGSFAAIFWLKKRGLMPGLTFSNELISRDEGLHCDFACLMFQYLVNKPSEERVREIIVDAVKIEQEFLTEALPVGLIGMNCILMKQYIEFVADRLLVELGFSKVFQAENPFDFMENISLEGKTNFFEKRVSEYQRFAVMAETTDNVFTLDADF
T1 sequence (P31350 whole entry): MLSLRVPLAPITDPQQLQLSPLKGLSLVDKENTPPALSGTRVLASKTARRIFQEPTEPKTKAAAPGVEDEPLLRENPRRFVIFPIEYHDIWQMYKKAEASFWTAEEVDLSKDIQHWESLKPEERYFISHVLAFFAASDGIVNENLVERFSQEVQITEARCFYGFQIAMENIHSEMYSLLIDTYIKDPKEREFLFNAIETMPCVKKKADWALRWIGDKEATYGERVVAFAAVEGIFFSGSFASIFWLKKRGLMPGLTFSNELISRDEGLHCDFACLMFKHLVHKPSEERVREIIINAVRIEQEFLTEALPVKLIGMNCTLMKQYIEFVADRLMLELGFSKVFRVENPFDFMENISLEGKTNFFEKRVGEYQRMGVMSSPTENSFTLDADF

[2] = target: T2, Ribonucleoside-diphosphate reductase RR1 (Homo sapiens, UniProt P23921+P31350+Q7LG56); experiment: as §1; type: protein-complex assay
T2 sequence (P23921 whole entry): T1 sequence (P23921 whole entry)
T2 sequence (Q7LG56 whole entry): T1 sequence (Q7LG56 whole entry)
T2 sequence (P31350 whole entry): T1 sequence (P31350 whole entry)

IC50 [1] [µM]	IC50 [2] [µM]	Compound
2.4		CC(C)C[C@H](NC(=O)[C@H](Cc1ccccc1)N(C)C(=O)OCC1c2ccccc2-c2ccccc21)C(=O)N[C@@H](CCC(=O)O)C(=O)N[C@@H](CC1CCCCC1)C(=O)N[C@@H](CC(=O)O)C(=O)N[C@@H](Cc1ccccc1)C(=O)O (Fmoc-[NMeF]LE[Cha]DF-OH)
	1.9	CC(C)C[C@H](NC(=O)[C@H](c1ccccc1)N(C)C(=O)OCC1c2ccccc2-c2ccccc21)C(=O)N[C@@H](CC(=O)O)C(=O)N[C@@H](CC1CCCCC1)C(=O)N[C@@H](CC(=O)O)C(=O)N[C@@H](Cc1ccccc1)C(=O)O (Fmoc-[NMePhg]LD[Cha]DF-OH)
	20	CC(C)[C@H](NC(=O)[C@H](Cc1c[nH]c2ccccc12)NC(=O)OCC1c2ccccc2-c2ccccc21)C(=O)N[C@@H](Cc1ccccc1)C(=O)N[C@@H](Cc1ccccc1)C(=O)O (Fmoc-WVFF-OH)
2.4		CC(C)C[C@H](NC(=O)[C@H](Cc1ccccc1)N(C)C(=O)OCC1c2ccccc2-c2ccccc21)C(=O)N[C@@H](CC(=O)O)C(=O)N[C@@H](CC1CCCCC1)C(=O)N[C@@H](CC(=O)O)C(=O)N[C@@H](Cc1ccccc1)C(=O)O (Fmoc-[NMeF]LD[Cha]DF-OH)
	22	O=C(O)C[C@H](NC(=O)[C@H](Cc1ccccc1)NC(=O)[C@H](Cc1c[nH]c2ccccc12)NC(=O)OCC1c2ccccc2-c2ccccc21)C(=O)N[C@@H](Cc1ccccc1)C(=O)O (Fmoc-WFDF-OH)
	13.3	Ac-FTLDADF-OH
